Measured values: article PMC4931907 (eLife, 2016)

Legend:
[1] = target: T1, p300 (Homo sapiens, UniProt Q09472); assay: p300 inhibition by direct microfluidic mobility shift analysis, H4(3–14) peptide; assay type: biochemical; conditions: microfluidic mobility shift, H4(3–14) peptide, 5 μM acetyl-CoA
T1 construct: in vitro acetylation assays with purified histones and a recombinant p300 catalytic domain; purchased Enzo Life Sciences
T1 sequence (Q09472 1287-1663 limits assumed): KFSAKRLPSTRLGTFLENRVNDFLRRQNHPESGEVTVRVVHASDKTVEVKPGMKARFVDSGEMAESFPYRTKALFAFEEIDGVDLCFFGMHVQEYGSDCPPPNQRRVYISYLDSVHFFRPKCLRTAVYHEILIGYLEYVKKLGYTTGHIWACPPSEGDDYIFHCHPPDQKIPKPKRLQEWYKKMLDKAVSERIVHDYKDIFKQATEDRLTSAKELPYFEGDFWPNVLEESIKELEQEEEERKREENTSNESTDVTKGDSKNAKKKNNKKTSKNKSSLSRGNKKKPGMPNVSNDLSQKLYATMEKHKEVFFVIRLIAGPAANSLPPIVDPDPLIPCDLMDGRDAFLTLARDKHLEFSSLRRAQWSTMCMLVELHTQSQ
Protocol: Figure 1. Salicylate inhibits CBP/p300 in vitro. (A) Recombinant p300, CBP, GCN5, or PCAF and histones were incubated with ^14C-labeled acetyl-CoA with or without sodium salicylate, separated by SDS-PAGE, analyzed by autoradiography, and quantified with Image J software. Acetylation levels are relative to those in untreated controls. (B) Thermal stability assay for sodium salicylate binding to the p300 HAT domain. Tm, melting temperature. (C) and (D) Lineweaver-Burk plots showing kinetic analysis of p300 acetyltransferase inhibition by sodium salicylate. Histone acetylation was measured with several concentrations of acetyl-CoA (C) or histone (D) in the presence or absence of sodium salicylate. DOI: http://dx.doi.org/10.7554/eLife.11156.003 Figure 1—figure supplement 1. […] (A) Dose-response data for inhibition of p300 by salicylate and salicyl-CoA. Acetylation of an H4(3–14) peptide was monitored using direct microfluidic mobility shift analysis as previously described ([Montgomery et al., 2014]; [Fanslau et al., 2010]). Error is given as the 95% confidence interval. […] Error is given as the 95% confidence interval. DOI: http://dx.doi.org/10.7554/eLife.11156.004 [drawing 1] TEXT PRINTED IN THE PICTURE: (A) Salicylate: p300 IC50 (mM): 6.12; Confidence Interval [CI95] (mM): 5.2–7.2 | (A) Salicyl-CoA: p300 IC50 (mM): […]; Confidence Interval [CI95] […] (mM): 0.78–1.4 | (B) Diflunisal-CoA: p300 IC50 (mM): 0.02; Confidence Interval [CI95] (mM): 0.02–0.03
Salicyl-CoA and diflunisal-CoA were synthesized from their parent carboxylic acids and HPLC purified according to previously reported methods ([Padmakumar et al., 1997]). The purity of each acyl-CoA was confirmed by analytical HPLC prior immediately prior to utilization ([Montgomery et al., 2014]; [Fanslau et al., 2010]). P300 inhibition assays were performed using direct microfluidic mobility shift analysis as previously described. Briefly, p300 reaction mixture (50 mM HEPES, pH 7.5, 50 mM NaCl, 2 mM EDTA, 2 mM DTT, 0.05% Triton-X-100, 50 nM p300, 2 μM FITC-histone H4 peptide) was plated in 384-well plates and allowed to equilibrate at room temperature for 10 min. Reactions were initiated by addition of acetyl-CoA (final concentration = 5 μM), bringing the final assay volume to 30 μL. Assays were quenched after 10 min (<15% product accumulation) by addition of 5 μL of 0.5 M neutral hydroxylamine and transferred to a Perkin-Elmer Lab-Chip EZ-Reader instrument for analysis. Separation conditions were: downstream voltage of −500 V, upstream voltage of −2500 V, and a pressure of −1.5 psi. Percent conversion was calculated by ratiometric measurement of substrate/product peak heights. Percent activity represents the percent conversion of KAT reactions treated with inhibitors relative to untreated control KAT reactions, and corrected for nonenzymatic acetylation. Dose-response analysis of p300 inhibition was performed in triplicate and analyzed by nonlinear least-squares regression fit to Y = 100/(1 + 10∧(Log IC50 – X)*H), where H = Hill slope (variable). IC50 values represent the concentration that inhibits 50% of KAT activity. Calculations were performed using Prism 6 (GraphPad) software.

[2] = cited from earlier work
[3] = test system: Kasumi-1 cells; assay: Growth and apoptosis of Kasumi-1 cells (trypan blue, annexin V/7AAD); assay type: cell-based, human; conditions: for Apoptosis, annexin V/7AAD double staining: Kasumi-1, 24 hr
Source text: Previously, we reported that the leukemogenicity of the AML1-ETO fusion protein, generated by a t(8;21) translocation in acute myelogenous leukemia, is regulated by p300-mediated acetylation of lysine 43 of the fusion protein ([Wang et al., 2011]).
Figure 4. […] (B) Kasumi-1 and AE9a cells treated or not with salicylate were counted by trypan-blue exclusion under light microscopy. […] The percentage of sub-G1 cells is shown. […] Cells were counted by trypan-blue exclusion under light microscopy. […] DOI: http://dx.doi.org/10.7554/eLife.11156.011
HEK293T cells (ATCC) were maintained in DMEM supplemented with 10% FCS. The viability of Kasumi-1 cells and AE9a mouse leukemia cells was assessed in triplicate by trypan blue exclusion. The Kasumi cell line was isolated and characterized by one of the coauthors (S. Nimer) ([Becker et al., 2008]). All cell lines were tested annually for mycoplasma contamination. Only negative mycoplasma cultures were used during the conduct of these experiments.
Apoptosis was analyzed with an Annexin V-APC/7AAD Apoptosis kit (Becton-Dickinson) according to manufacturer’s instructions. To assess the distribution of nuclear DNA content in the cell-cycle analysis, cells were collected, washed in PBS, fixed overnight in 75% ethanol at –20°C, treated with 1% RNase A for at least 15 min at 37°C, and stained with […] propidium iodide. To monitor CD34 expression, the cells were stained with an allophycocyanin-conjugated anti-CD34 antibody (Becton Dickinson). To monitor CD11b expression, the cells were stained with a phycoerythrin-conjugated anti-CD11b antibody (Beckman-Coulter). To monitor C-kit and Mac-1 expression, the cells were stained with allophycocyanin-conjugated anti-C-kit and phycoerythrin-conjugated anti-Mac-1 antibodies (Becton-Dickinson). Cells were sorted with a Becton-Dickinson FACSCalibur, and the data were analyzed with FlowJo software.

[4] = test system: acetyl p53K382; assay: Acetylation of overexpressed p53 in HEK293T cells, Western blot; assay type: cell-based; conditions: HEK293T transfected with p300 and p53, 24 hr
Source text: Figure 2.

| SMILES | IC50 [1] [mM] | Plasma concentrations of salicylate ([2]; humans after oral administration, ref Goldfine et al., 2010, 2013) [µM] | Salicylate plasma concentrations in patients ([2]; patients taking salicylic acid 3–4 g/day, no reference given) [mM] | Apoptosis, annexin V/7AAD double staining [3] | Concentration inhibiting cell proliferation ([3]; Kasumi-1, trypan-blue exclusion counts) [mM] | Acetylation of p53 K382 [4] | Plasma concentrations of diflunisal ([2]; after daily oral administration, ref Nuernberg et al., 1991, Mano et al., 2006) [µM] | Kasumi-1 cell growth ([3]; trypan-blue exclusion counts) |
| --- | --- | --- | --- | --- | --- | --- | --- | --- |
| O=C(O)c1ccccc1O [salicylate, salicylic acid] | 6.12 | 1000 to 3000 | 1 to 3 | increased apoptosis | ≥ 1 | decreased acetylation | – | – |
| O=C(O)c1cc(-c2ccc(F)cc2F)ccc1O [diflunisal] | 1.05 | – | – | increased apoptosis in a dose-dependent manner | – | suppressed acetylation | 150 to 350 | inhibition of growth |
